According to US6525001B1, “Substituted pyrimidine and pyridine herbicides” (Mid-American Commercialization Corporation, priority 1997, dated 2003):

Tests used:
Assay in all cases: Test B pre-/postemergence
Type in all cases: in vivo
Design in all cases: key: 0 is no effect; 10 is complete control
[1] = tested on: bedstraw (Galium aparine)
Outline: (§1)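 Scored visually 0 (none) to 10 (complete control) against untreated plants after twelve to sixteen greenhouse days. Test chemicals, formulated in surfactant-containing non-phytotoxic solvent, applied to soil after planting and, separately, onto 1- to 4-leaf (2–18 cm) plants.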

[2] = tested on: broadleaf signalgrass (Brachiaria decumbens)
Outline: as §1

[3] = tested on: cocklebur (Xanthium strumarium)
Outline: as §1

corn (Zea mays) = tested on: corn (Zea mays)
Outline: as §1

[4] = tested on: crabgrass (Digitaria sanguinalis)
Outline: as §1

[5] = tested on: giant foxtail (Setaria faberii)
Outline: as §1

[6] = tested on: momingglory (Ipomoea hederacea)
Outline: as §1

[7] = tested on: pigweed (Amaranthus retroflexus)
Outline: as §1

[8] = tested on: purple nutsedge (Cyperus rotundus)
Outline: as §1

rape (Brassica napus) = tested on: rape (Brassica napus)
Outline: as §1

soybean (Glycine max) = tested on: soybean (Glycine max)
Outline: as §1

[9] = tested on: sugar beet (Beta vulgaris)
Outline: as §1

[10] = tested on: velvetleaf (Abutilon theophrasti)
Outline: as §1

[11] = tested on: wheat (Triticum aestivum)
Outline: as §1

[12] = Preemergence, Rate 62 g/ha, scale of 0 to 10

In the case of Cc1cnc(-n2cnc(C(F)(F)F)c2)nc1C(=O)c1cccc(OC(F)(F)F)c1 [Compound 63], the “Plant response rating, Bedstraw” value [1, 12] is reported as 2, the “Bedstraw plant response rating” value ([1]; Rate 62 g/ha, Postemergence) is reported as 2 and the “Bedstraw plant response rating” value ([1]; Rate 125 g/ha, Postemergence) is reported as 2. For the same compound, the “Plant response rating, Bedstraw” value ([1]; Rate 125 g/ha, Preemergence) was 4, the “Plant response rating, Bedstraw” value ([1]; Rate 250 g/ha, Postemergence) was 5 and the “Plant response rating, Bedstraw” value ([1]; Rate 250 g/ha, Preemergence) was 4. The “Plant response rating, Bedstraw” value ([1]; Rate 500 g/ha, Postemergence) was 8, the “Plant response rating, Bedstraw” value ([1]; Rate 500 g/ha, Preemergence) was 8 and the “B. signalgrass plant response rating” value ([2]; Rate 62 g/ha, Postemergence) was 4. The “B. signalgrass plant response rating” value ([2]; Rate 62 g/ha, Preemergence) was 4, the “B. signalgrass plant response rating” value ([2]; Rate 125 g/ha, Postemergence) was 3 and the “Plant response rating, B. signalgrass” value ([2]; Rate 125 g/ha, Preemergence) was 7. The “Plant response rating, B. signalgrass” value ([2]; Rate 250 g/ha, Postemergence) was 4, the “Plant response rating, B. signalgrass” value ([2]; Rate 250 g/ha, Preemergence) was 8 and the “Plant response rating, B. signalgrass” value ([2]; Rate 500 g/ha, Postemergence) was 5. For the same compound, the “Plant response rating, B. signalgrass” value ([2]; Rate 500 g/ha, Preemergence) was 9, the “Plant response rating, Cocklebur” value [3, 12] was 1 and the “Cocklebur plant response rating” value ([3]; Rate 62 g/ha, Postemergence) was 1. For the same compound, the “Cocklebur plant response rating” value ([3]; Rate 125 g/ha, Postemergence) was 3, the “Plant response rating, Cocklebur” value ([3]; Rate 500 g/ha, Postemergence) was 8 and the “Plant response rating, Cocklebur” value ([3]; Rate 500 g/ha, Preemergence) was 1. The “Plant response rating, Corn” value (corn (Zea mays); [12]) was 0, the “Corn plant response rating” value (corn (Zea mays); Rate 62 g/ha, Postemergence) was 0 and the “Corn plant response rating” value (corn (Zea mays); Rate 125 g/ha, Postemergence) was 2. For the same compound, the “Plant response rating, Corn” value (corn (Zea mays); Rate 125 g/ha, Preemergence) was 1, the “Plant response rating, Corn” value (corn (Zea mays); Rate 250 g/ha, Postemergence) was 2 and the “Plant response rating, Corn” value (corn (Zea mays); Rate 250 g/ha, Preemergence) was 1. The “Plant response rating, Corn” value (corn (Zea mays); Rate 500 g/ha, Postemergence) was 2, the “Plant response rating, Corn” value (corn (Zea mays); Rate 500 g/ha, Preemergence) was 2 and the “Plant response rating, Crabgrass” value [4, 12] was 3. For the same compound, the “Crabgrass plant response rating” value ([4]; Rate 62 g/ha, Postemergence) was 3, the “Crabgrass plant response rating” value ([4]; Rate 125 g/ha, Postemergence) was 3 and the “Plant response rating, Crabgrass” value ([4]; Rate 125 g/ha, Preemergence) was 6. For the same compound, the “Plant response rating, Crabgrass” value ([4]; Rate 250 g/ha, Postemergence) was 4, the “Plant response rating, Crabgrass” value ([4]; Rate 250 g/ha, Preemergence) was 8 and the “Plant response rating, Crabgrass” value ([4]; Rate 500 g/ha, Postemergence) was 6. The “Plant response rating, Crabgrass” value ([4]; Rate 500 g/ha, Preemergence) was 9, the “Plant response rating, Giant foxtail” value [5, 12] was 2 and the “Giant foxtail plant response rating” value ([5]; Rate 62 g/ha, Postemergence) was 2. For the same compound, the “Giant foxtail plant response rating” value ([5]; Rate 125 g/ha, Postemergence) was 2, the “Plant response rating, Giant foxtail” value ([5]; Rate 125 g/ha, Preemergence) was 3 and the “Plant response rating, Giant foxtail” value ([5]; Rate 250 g/ha, Postemergence) was 3. For the same compound, the “Plant response rating, Giant foxtail” value ([5]; Rate 250 g/ha, Preemergence) was 6, the “Plant response rating, Giant foxtail” value ([5]; Rate 500 g/ha, Postemergence) was 3 and the “Plant response rating, Giant foxtail” value ([5]; Rate 500 g/ha, Preemergence) was 8. For the same compound, the “Plant response rating, Morningglory” value [6, 12] was 2, the “Morningglory plant response rating” value ([6]; Rate 62 g/ha, Postemergence) was 2 and the “Morningglory plant response rating” value ([6]; Rate 125 g/ha, Postemergence) was 4. For the same compound, the “Plant response rating, Morningglory” value ([6]; Rate 125 g/ha, Preemergence) was 7, the “Plant response rating, Morningglory” value ([6]; Rate 250 g/ha, Postemergence) was 10 and the “Plant response rating, Morningglory” value ([6]; Rate 250 g/ha, Preemergence) was 10. For the same compound, the “Plant response rating, Morningglory” value ([6]; Rate 500 g/ha, Postemergence) was 10, the “Plant response rating, Morningglory” value ([6]; Rate 500 g/ha, Preemergence) was 10 and the “Plant response rating, Redroot pigweed” value [7, 12] was 8. The “Redroot pigweed plant response rating” value ([7]; Rate 62 g/ha, Postemergence) was 8, the “Redroot pigweed plant response rating” value ([7]; Rate 125 g/ha, Postemergence) was 9 and the “Plant response rating, Redroot pigweed” value ([7]; Rate 125 g/ha, Preemergence) was 9. The “Plant response rating, Redroot pigweed” value ([7]; Rate 250 g/ha, Postemergence) was 9, the “Plant response rating, Redroot pigweed” value ([7]; Rate 250 g/ha, Preemergence) was 10 and the “Plant response rating, Redroot pigweed” value ([7]; Rate 500 g/ha, Postemergence) was 9. The “Plant response rating, Redroot pigweed” value ([7]; Rate 500 g/ha, Preemergence) was 10, the “Plant response rating, Nutsedge” value [8, 12] was 0 and the “Nutsedge plant response rating” value ([8]; Rate 62 g/ha, Postemergence) was 0. For the same compound, the “Plant response rating, Nutsedge” value ([8]; Rate 125 g/ha, Preemergence) was 0, the “Plant response rating, Nutsedge” value ([8]; Rate 250 g/ha, Postemergence) was 0 and the “Plant response rating, Nutsedge” value ([8]; Rate 500 g/ha, Preemergence) was 0. The “Plant response rating, Rape” value (rape (Brassica napus); [12]) was 3, the “Rape plant response rating” value (rape (Brassica napus); Rate 62 g/ha, Postemergence) was 3 and the “Rape plant response rating” value (rape (Brassica napus); Rate 125 g/ha, Postemergence) was 4. For the same compound, the “Plant response rating, Rape” value (rape (Brassica napus); Rate 125 g/ha, Preemergence) was 3, the “Plant response rating, Rape” value (rape (Brassica napus); Rate 250 g/ha, Postemergence) was 8 and the “Plant response rating, Rape” value (rape (Brassica napus); Rate 250 g/ha, Preemergence) was 4. The “Plant response rating, Rape” value (rape (Brassica napus); Rate 500 g/ha, Postemergence) was 8, the “Plant response rating, Rape” value (rape (Brassica napus); Rate 500 g/ha, Preemergence) was 8 and the “Plant response rating, Soybean” value (soybean (Glycine max); [12]) was 0. The “Soybean plant response rating” value (soybean (Glycine max); Rate 62 g/ha, Postemergence) was 0, the “Soybean plant response rating” value (soybean (Glycine max); Rate 125 g/ha, Postemergence) was 2 and the “Plant response rating, Soybean” value (soybean (Glycine max); Rate 125 g/ha, Preemergence) was 0. The “Plant response rating, Soybean” value (soybean (Glycine max); Rate 250 g/ha, Postemergence) was 2, the “Plant response rating, Soybean” value (soybean (Glycine max); Rate 250 g/ha, Preemergence) was 0 and the “Plant response rating, Soybean” value (soybean (Glycine max); Rate 500 g/ha, Postemergence) was 2. The “Plant response rating, Soybean” value (soybean (Glycine max); Rate 500 g/ha, Preemergence) was 0, the “Plant response rating, Sugarbeets” value [9, 12] was 10 and the “Sugarbeets plant response rating” value ([9]; Rate 62 g/ha, Postemergence) was 10. For the same compound, the “Sugarbeets plant response rating” value ([9]; Rate 125 g/ha, Postemergence) was 9, the “Plant response rating, Sugarbeets” value ([9]; Rate 125 g/ha, Preemergence) was 10 and the “Plant response rating, Sugarbeets” value ([9]; Rate 250 g/ha, Postemergence) was 9. The “Plant response rating, Sugarbeets” value ([9]; Rate 250 g/ha, Preemergence) was 10, the “Plant response rating, Sugarbeets” value ([9]; Rate 500 g/ha, Postemergence) was 9 and the “Plant response rating, Sugarbeets” value ([9]; Rate 500 g/ha, Preemergence) was 10. For the same compound, the “Plant response rating, Velvetleaf” value [10, 12] was 2, the “Velvetleaf plant response rating” value ([10]; Rate 62 g/ha, Postemergence) was 2 and the “Velvetleaf plant response rating” value ([10]; Rate 125 g/ha, Postemergence) was 8. For the same compound, the “Plant response rating, Velvetleaf” value ([10]; Rate 125 g/ha, Preemergence) was 2, the “Plant response rating, Velvetleaf” value ([10]; Rate 250 g/ha, Postemergence) was 8 and the “Plant response rating, Velvetleaf” value ([10]; Rate 250 g/ha, Preemergence) was 10. For the same compound, the “Plant response rating, Velvetleaf” value ([10]; Rate 500 g/ha, Postemergence) was 8, the “Plant response rating, Velvetleaf” value ([10]; Rate 500 g/ha, Preemergence) was 10 and the “Plant response rating, Wheat” value [11, 12] was 2. The “Wheat plant response rating” value ([11]; Rate 62 g/ha, Postemergence) was 2, the “Wheat plant response rating” value ([11]; Rate 125 g/ha, Postemergence) was 2 and the “Plant response rating, Wheat” value ([11]; Rate 125 g/ha, Preemergence) was 2. For the same compound, the “Plant response rating, Wheat” value ([11]; Rate 250 g/ha, Postemergence) was 2, the “Plant response rating, Wheat” value ([11]; Rate 250 g/ha, Preemergence) was 3 and the “Plant response rating, Wheat” value ([11]; Rate 500 g/ha, Postemergence) was 2. For the same compound, the “Plant response rating, Wheat” value ([11]; Rate 500 g/ha, Preemergence) was 4.
